Active and inactive are the calls of the source. The calls are words filed in the database; no cut-off is given here.
What was measured:
[1] = system: RAW264.7; experiment: Antiinflammatory activity in mouse RAW264.7 cells assessed as inhibition of LPS-induced NO production at 100 uM measured after 24 hrs by Griess method; type: functional
[2] = system: RAW264.7; experiment: Cytotoxicity against mouse RAW264.7 cells […] measured after 24 hrs by MTT assay; type: cell-based; details: RAW264.7, 24 h
[3] = species: Danio rerio; experiment: Antiinflammatory activity in transgenic fluorescent Zebrafish assessed as reduction in CuSO4 induced number of macrophage migration at 10 to 50 uM measured after 1 hr by fluorescence microscopic analysis; type: functional, organism-based; details: dose 10-50 µM

SMILES | Activity [1] | IC50 [2] [µM] | Activity [3]
CCOC(=O)C1=C(C)[C@]2(C)CC[C@@H](C)[C@]2(C)CC1=O | inactive | > 100 | –
CC1=C(CC(=O)O)C(=O)C[C@@]2(C)[C@H](C)CC[C@@]12C | inactive | > 100 | –
C=C1[C@@]2(CC=O)O[C@H](OC2=O)[C@@]2(C)[C@H](C)CC[C@@]12C | 83.15% | > 100 | inactive
C[C@@H]1CC[C@@]2(C)[C@H](C)C3=CC(=O)N[C@@H]3C[C@@]12C | inactive | > 100 | –
C[C@@H]1CC[C@@]2(C)[C@H](C)[C@]3(C[C@@]12C)C(=O)O[C@H]1O[C@H]13 | inactive | > 100 | –
CCO[C@@]12C[C@@]3(C)[C@H](C)CC[C@@]3(C)[C@H](C)C1=CC(=O)O2 | 83.54% | > 100 | Active
C[C@@H]1CC[C@@]2(C)[C@H](C)C3=CC(=O)O[C@]3(O)C[C@@]12C | 96.28% | > 100 | inactive
C[C@@H]1CC[C@@]2(C)[C@H](C)C3=CC(=O)NC3=C[C@@]12C | inactive | > 100 | –
CO[C@@]12C[C@@]3(C)[C@H](C)CC[C@@]3(C)[C@H](C)C1=CC(=O)O2 | inactive | > 100 | –
C=C1[C@]2(C)CC[C@@H](C)[C@]2(C)C[C@@]2(O)O[C@@H](OCC)[C@H](O)[C@@]12OCC | inactive | > 100 | –
CCOC(=O)/C=C1\C(=O)C[C@@]2(C)[C@H](C)CC[C@@]2(C)[C@@H]1C | inactive | > 100 | –

Reference: ChEMBL document CHEMBL5036360, “Pinguisane Sesquiterpenoids from the Chinese Liverwort Trocholejeunea sandvicensis and Their Anti-Inflammatory Activity” (J Nat Prod, 2022)
